Patent US20100160445A1, “Synergistic Mixtures of OPP and DGH” (priority 2002, published 2010)

Legend:
[1] = tested on: mixed inoculum of bacteria; assay: MIC and synergy (K) in nutrient broth, microtiter plates; assay type: cell-based
Experimental: Stock solutions of each product were prepared in sterile distilled water. Synergism was measured by the method first described by F. C. Kull, P. C. Eisman, H. D. Sylwestrowicz and R. L. Mayer in Applied Microbiology, 9, 538-41 ([…]). This manner of determining synergism has been widely used and is industrially acceptable. It is believed that the specified method is sufficient in explaining the process. However for a further description, reference can be made to U.S. Pat. No. 3,231,509 and its file history, where this type of data was considered acceptable.
• 1. Incubator capable of maintaining a variable temperature range (25-45 C) • 2. Samples of each biocide or test compound to be examined • 3. Microtiter plates—96 well with lid, sterile. • 4. 8-12 channel micropipetting device capable of pipetting 0-250 ul volumes • 5. Micropipette tips capable of holding up to 250 ul volumes • 6. Sterile microbiological culture broth. Trypticase Soy Broth (TSB) or Nutrient Broth (NB) is recommended for bacteria and Sabouraud Maltose Broth (SMB) or Sabouraud Dextrose Broth (SDB) is recommended for yeasts and molds. In the case of this particular study the microbiological culture medium was Nutrient Broth at pH 7.0, 8.0 and 9.0. • 7. Pure cultures of microorganisms of choice grown on appropriate agar medium • 8. Sterile distilled water • 9. 100 mL volumetric flasks (one for each biocide to be tested) • 10. Sterile 10 mL tubes of Phosphate buffer (Butterfield's buffer pH 7.2+/−0.2). Contains purified water, monobasic potassium phosphate and sodium hydroxide for pH adjustment. • 11. Sterile cotton swabs • 12. 0.5 MacFarland Turbidity Standard
The day before testing, perform a streak plate of each organism to be tested on an appropriate agar medium (Trypticase Soy Agar). Organisms tested in this study were: Wild strain bacteria isolated from previously contaminated industrial systems and which were identified as: Pseudomonas sp., Escherchia coli , Enterobacter sp., Alcaligenes sp. and Alcaligenes faecalis. On the day of the test, use a sterile cotton swab to harvest some of the growth. Place swab into a tube containing 10 mL sterile phosphate buffer. Compare and adjust the turbidity of the organisms in the tube to 1×10^8 cfu/mL using a 0.5 MacFarland Turbidity Standard. Dilute the 10 mL tube into 90 mL of sterile 2× nutrient broth at pH 7.0, 8.0 and 9.0.
1. Design the layout of the microtiter plates based on the number of organisms to test and the number of biocides and desired concentrations to test. A separate microtiter plate is required for testing each biocide alone, in addition to the combination microtiter plate. 2. Prepare a working stock solution of each biocide to be tested. For the combination microtiter plate, the working stock solution of Biocide A will be 8× the concentration desired in the first well of the combination microtiter plate. The working stock solution of Biocide B will be 4× the concentration desired in the first well of the combination microtiter plate. For the alone microtiter plates, the working stock solutions of Biocide A and Biocide B will both be 4× the concentration desired in the first well of the single biocide microtiter plates.
Dodecylguanidine hydrochloride: (For combination plates) A solution of this product which is 35% active, was made as follows: […]=8000 ppm active=8000/0.35=22,857 ppm, 2.28 g into 100 mL sterile diH2O. Levels to test are: 1000 ppm, 500 ppm, 250 ppm, 125 ppm, 62.5 ppm, 31.2 ppm, 15.6 ppm, 7.8 ppm, 3.9 ppm, 1.95 ppm
Ortho-PhenylPhenol: (For combination plates) Make a solution of this product which is 99% active, 4×125=500 ppm active=500/0.99=505 ppm, 0.05 g into 100 mL MeOH and sterile diH2O. Level to test is 125 ppm.
3. Place 50 ul of sterile distilled water in all of the rows in columns 1 through 10, and 100 ul of sterile distilled water in all of the rows in columns 11 and 12 of the 96 well combination microtiter plate. […]

[2] = tested on: wild strain bacteria isolated from previously contaminated systems; assay: In-Can Preservation Test of paint samples; assay type: cell-based; settings: for Effective Preservative (ppm): two inoculation challenge; on Microbial growth, 1st Inoculation, 1st sub-column: key: 4 = Heavy Microbial Growth; 3 = Moderate Microbial Growth; 2 = Slight Microbial Growth; 1 = Trace Microbial Growth; 0 = No Microbial Growth; on Microbial growth, 1st Inoculation, 2nd sub-column: key: 4 = Heavy Microbial Growth; 3 = Moderate Microbial Growth; 2 = Slight Microbial Growth; 1 = Trace Microbial Growth; 0 = No Microbial Growth; on Microbial growth, 2nd Inoculation, 1st sub-column: key: 4 = Heavy Microbial Growth; 3 = Moderate Microbial Growth; 2 = Slight Microbial Growth; 1 = Trace Microbial Growth; 0 = No Microbial Growth; on Microbial growth, 2nd Inoculation, 2nd sub-column: key: 4 = Heavy Microbial Growth; 3 = Moderate Microbial Growth; 2 = Slight Microbial Growth; 1 = Trace Microbial Growth; 0 = No Microbial Growth
Experimental: Preservation Testing was performed on the three paint samples: Acrylic Flat, Acrylic and Vinyl Acrylic. Each sample was treated with various levels OPP, DGH individually and a mixture of OPP and DGH. All samples were then inoculated with wild strain bacteria isolated from previously contaminated systems. Following the initial inoculation, the samples were reinoculated on day 7. This testing scenario best simulates what happens in a “real world” situation. […]

[3] = Table 2 paint (Acrylic Flat / Vinyl Acrylic Flat), 1000 ppm
[4] = Table 2 paint (Acrylic Flat / Vinyl Acrylic Flat), 1500 ppm
[5] = Table 2 paint (Acrylic Flat / Vinyl Acrylic Flat), 2000 ppm
[6] = Table 2 paint (Acrylic Flat / Vinyl Acrylic Flat), 2500 ppm
[7] = Table 2 paint (Acrylic Flat / Vinyl Acrylic Flat), 3000 ppm
[8] = Table 2 paint (Acrylic Flat / Vinyl Acrylic Flat), 3500 ppm
[9] = Table 2 paint (Acrylic Flat / Vinyl Acrylic Flat), 4000 ppm
[10] = Table 3 paint (Vinyl Acrylic Flat / Acrylic Flat), 1000 ppm
[11] = Table 3 paint (Vinyl Acrylic Flat / Acrylic Flat), 1500 ppm
[12] = Table 3 paint (Vinyl Acrylic Flat / Acrylic Flat), 2000 ppm
[13] = Table 3 paint (Vinyl Acrylic Flat / Acrylic Flat), 2500 ppm
[14] = Table 3 paint (Vinyl Acrylic Flat / Acrylic Flat), 3000 ppm
[15] = Table 3 paint (Vinyl Acrylic Flat / Acrylic Flat), 3500 ppm
[16] = Table 3 paint (Vinyl Acrylic Flat / Acrylic Flat), 4000 ppm

Oc1ccccc1-c1ccccc1 [OPP, Ortho-PhenylPhenol]
1.00: Synergy Index ([1]; pH 8.0, 1000 ppm NaOPP alone (0:100)) | Synergy Index ([1]; pH 9.0, 500 ppm NaOPP alone (0:100))
0: Microbial growth, 1st Inoculation, 2nd sub-column [2, 16] | Microbial growth, 2nd Inoculation, 2nd sub-column [2, 16]
> 1000 mg/L: MIC ([1]; pH 7, read-out: MIC, biocide alone)
1: Microbial growth, 1st Inoculation, 2nd sub-column [2, 15] | Microbial growth, 2nd Inoculation, 2nd sub-column [2, 15]
4000 ppm: Effective Preservative (ppm) ([2]; Vinyl Acrylic Flat paint)
3: Microbial growth, 1st Inoculation, 1st sub-column ([2]; Acrylic paint, 1000 ppm) | Microbial growth, 1st Inoculation, 2nd sub-column ([2]; Acrylic paint, 1000 ppm) | Microbial growth, 2nd Inoculation, 1st sub-column ([2]; Acrylic paint, 1000 ppm) | Microbial growth, 2nd Inoculation, 2nd sub-column ([2]; Acrylic paint, 1000 ppm) | Microbial growth, 1st Inoculation, 1st sub-column ([2]; Acrylic paint, 1500 ppm) | Microbial growth, 1st Inoculation, 2nd sub-column ([2]; Acrylic paint, 1500 ppm) | Microbial growth, 2nd Inoculation, 1st sub-column ([2]; Acrylic paint, 1500 ppm) | Microbial growth, 2nd Inoculation, 2nd sub-column ([2]; Acrylic paint, 1500 ppm) | Microbial growth, 1st Inoculation, 1st sub-column ([2]; Acrylic paint, 2000 ppm) | Microbial growth, 1st Inoculation, 2nd sub-column ([2]; Acrylic paint, 2000 ppm) | Microbial growth, 2nd Inoculation, 1st sub-column ([2]; Acrylic paint, 2000 ppm) | Microbial growth, 2nd Inoculation, 2nd sub-column ([2]; Acrylic paint, 2000 ppm) | Microbial growth, 1st Inoculation, 1st sub-column ([2]; Acrylic paint, 2500 ppm) | Microbial growth, 1st Inoculation, 2nd sub-column ([2]; Acrylic paint, 2500 ppm) | Microbial growth, 2nd Inoculation, 1st sub-column ([2]; Acrylic paint, 2500 ppm) | Microbial growth, 2nd Inoculation, 2nd sub-column ([2]; Acrylic paint, 2500 ppm) | Microbial growth, 1st Inoculation, 1st sub-column ([2]; Acrylic paint, 3000 ppm) | Microbial growth, 1st Inoculation, 2nd sub-column ([2]; Acrylic paint, 3000 ppm) | Microbial growth, 2nd Inoculation, 1st sub-column ([2]; Acrylic paint, 3000 ppm) | Microbial growth, 2nd Inoculation, 2nd sub-column ([2]; Acrylic paint, 3000 ppm) | Microbial growth, 1st Inoculation, 1st sub-column ([2]; Acrylic paint, 3500 ppm) | Microbial growth, 1st Inoculation, 2nd sub-column ([2]; Acrylic paint, 3500 ppm) | Microbial growth, 2nd Inoculation, 1st sub-column ([2]; Acrylic paint, 3500 ppm) | Microbial growth, 2nd Inoculation, 2nd sub-column ([2]; Acrylic paint, 3500 ppm) | Microbial growth, 1st Inoculation, 1st sub-column ([2]; Acrylic paint, 4000 ppm) | Microbial growth, 1st Inoculation, 2nd sub-column ([2]; Acrylic paint, 4000 ppm) | Microbial growth, 2nd Inoculation, 1st sub-column ([2]; Acrylic paint, 4000 ppm) | Microbial growth, 2nd Inoculation, 2nd sub-column ([2]; Acrylic paint, 4000 ppm) | Microbial growth, 1st Inoculation, 1st sub-column [2, 3] | Microbial growth, 1st Inoculation, 2nd sub-column [2, 3] | Microbial growth, 2nd Inoculation, 1st sub-column [2, 3] | Microbial growth, 2nd Inoculation, 2nd sub-column [2, 3] | Microbial growth, 1st Inoculation, 1st sub-column [2, 4] | Microbial growth, 1st Inoculation, 2nd sub-column [2, 4] | Microbial growth, 2nd Inoculation, 1st sub-column [2, 4] | Microbial growth, 2nd Inoculation, 2nd sub-column [2, 4] | Microbial growth, 1st Inoculation, 1st sub-column [2, 5] | Microbial growth, 1st Inoculation, 2nd sub-column [2, 5] | Microbial growth, 2nd Inoculation, 1st sub-column [2, 5] | Microbial growth, 2nd Inoculation, 2nd sub-column [2, 5] | Microbial growth, 1st Inoculation, 1st sub-column [2, 6] | Microbial growth, 1st Inoculation, 2nd sub-column [2, 6] | Microbial growth, 2nd Inoculation, 1st sub-column [2, 6] | Microbial growth, 2nd Inoculation, 2nd sub-column [2, 6] | Microbial growth, 1st Inoculation, 1st sub-column [2, 7] | Microbial growth, 1st Inoculation, 2nd sub-column [2, 7] | Microbial growth, 2nd Inoculation, 1st sub-column [2, 7] | Microbial growth, 2nd Inoculation, 2nd sub-column [2, 7] | Microbial growth, 1st Inoculation, 1st sub-column [2, 8] | Microbial growth, 1st Inoculation, 2nd sub-column [2, 8] | Microbial growth, 2nd Inoculation, 1st sub-column [2, 8] | Microbial growth, 2nd Inoculation, 2nd sub-column [2, 8] | Microbial growth, 1st Inoculation, 1st sub-column [2, 9] | Microbial growth, 1st Inoculation, 2nd sub-column [2, 9] | Microbial growth, 2nd Inoculation, 1st sub-column [2, 9] | Microbial growth, 2nd Inoculation, 2nd sub-column [2, 9]
>4000 ppm: Effective Preservative (ppm) ([2]; Acrylic Flat paint) | Effective Preservative (ppm) ([2]; Acrylic paint)
2: Microbial growth, 1st Inoculation, 1st sub-column [2, 10] | Microbial growth, 1st Inoculation, 2nd sub-column [2, 10] | Microbial growth, 2nd Inoculation, 1st sub-column [2, 10] | Microbial growth, 2nd Inoculation, 2nd sub-column [2, 10] | Microbial growth, 1st Inoculation, 1st sub-column [2, 11] | Microbial growth, 1st Inoculation, 2nd sub-column [2, 11] | Microbial growth, 2nd Inoculation, 1st sub-column [2, 11] | Microbial growth, 2nd Inoculation, 2nd sub-column [2, 11] | Microbial growth, 1st Inoculation, 1st sub-column [2, 12] | Microbial growth, 1st Inoculation, 2nd sub-column [2, 12] | Microbial growth, 2nd Inoculation, 1st sub-column [2, 12] | Microbial growth, 2nd Inoculation, 2nd sub-column [2, 12] | Microbial growth, 1st Inoculation, 1st sub-column [2, 13] | Microbial growth, 1st Inoculation, 2nd sub-column [2, 13] | Microbial growth, 2nd Inoculation, 1st sub-column [2, 13] | Microbial growth, 2nd Inoculation, 2nd sub-column [2, 13] | Microbial growth, 1st Inoculation, 1st sub-column [2, 14] | Microbial growth, 1st Inoculation, 2nd sub-column [2, 14] | Microbial growth, 2nd Inoculation, 1st sub-column [2, 14] | Microbial growth, 2nd Inoculation, 2nd sub-column [2, 14] | Microbial growth, 1st Inoculation, 1st sub-column [2, 15] | Microbial growth, 2nd Inoculation, 1st sub-column [2, 15] | Microbial growth, 1st Inoculation, 1st sub-column [2, 16] | Microbial growth, 2nd Inoculation, 1st sub-column [2, 16]
